According to PMC11373361, “Expanding the inhibitor space of the WWP1 and WWP2 HECT E3 ligases” (Journal of Enzyme Inhibition and Medicinal Chemistry, 2024):
Values joined by “and” are separate entries in the source; they are usually repeats but may differ in a detail not shown here. Equal values may be shown once.

Columns and labels:
[1] = target: T1, WWP2-FL (Homo sapiens, UniProt O00308); assay: WWP2 ELISA autoubiquitination assay; assay type: biochemical; conditions: for relative activity, single-shot autoubiquitination: 1 mM compound, hit threshold less than 50% relative activity; for relative autoubiquitination activity, single-shot: 500 µM compound, normalised to 0% and 100% controls
T1 construct: full-length WWP2 (WWP2-FL); made in house; host or cells: E. coli BL21-CodonPlus RP (plasmid pGEX2T-WWP2-FL, Dr Andrew Chantry's Lab)
Protocol: (§1) Cell lysate containing His-tagged WWP1-L34H or GST-tagged WWP2-FL proteins were incubated on either 96-well Clear Pierce glutathione or nickel-coated plates for 1 h in PBS. Reaction mixtures of either 3 ng/well GST-Uba1 and 15 ng/well UbcH7 or 10 ng/well His-Uba1 and 150 ng/well His-UbcH7 were incubated together in 25 mM Tris pH 8.0, 100 mM NaCl, 4 mM MgCl2 containing 60 ng/well FLAG-ubiquitin and 1.25 mM ATP for 40 min. A prior 1% BSA plate blocking step is required for nickel-coated plates. After plate washing, 2 μL of the compound was added at the desired concentration (0.1 – 1% DMSO) followed by 18 μL of the reaction mixture. This was then incubated for 2 h with 0% and 100% controls before 100 μL of anti-FLAG M2-Peroxidase HRP (1: 10,000 PBST) was added to each well and incubated for 1 h. Finally, 100 μL of 1 × TMB substrate solution (Invitrogen) was added to each well and incubated for up to 10 min until sufficient blue colour change was observed. To stop the reaction, 100 μL of 1 M HCl was added. GST-tagged Uba1 counter-assay followed a similar protocol first incubating cell lysate for 1 h before adding 20 µL of reaction mixture containing 60 ng/well FLAG-ubiquitin, 1.25 mM ATP, and 1 mM compound at 1% DMSO. His-tagged UbcH7 counter-assays preincubated 3 ng/well GST-Uba1 and 200 ng/well UbcH7 with the reaction mixture components (60 ng/well FLAG-ubiquitin, 1.25 mM ATP, and 1 mM compound at 1% DMSO) for 1 h before incubating onto nickel-coated plates for a further 1 h. All other steps were followed. The plates were washed three times with PBST (and 15 mM Imidazole) between each step. Quantification was measured by absorbance read at 450 nm, standardised to the 0% and 100% activity controls. A visual representation of the assay steps is shown in SI Figure S13. All assay optimisations have been previously reported by Watt and colleagues. IC50 non-linear regression curves were calculated in GraphPad v10.2 (Prism).
(§2) The DSF hit compounds were initially screened using a single-shot WWP1 and WWP2 ELISA autoubiquitination assay at 500 µM compound (1% DMSO), measuring inhibition against their relative autoubiquitination activity following protocols previously described. […] Four NSC compounds for WWP1 (13151, 73735, 85433 & 637578) and three NSC compounds for WWP2 (26112, 57103 & 217913) were initially selected having a threshold of less than 50% relative activity when compared to 0% and 100% controls (Figure 2).
(§3) The resulting synthesised analogues were screened using the single-shot ELISA autoubiquitination assay at 1 mM compound concentration (1% DMSO) before IC50 values were calculated for hit compounds (SI Figure 2–4).
ELISA Autoubiquitination Assay
Figure S13. Schematic diagram of the WWP2 ELISA autoubiquitination assay. (1a) Immobilisation of GST-Tagged WWP2 on glutathione coated plates. The GST-tagged (green) WWP2-FL (orange) is bound to glutathione (black), further linked via an SSMPB linker (pink) bound to haemoglobin (red). (1b) Reaction mixture of His-E1, His-E2 and flag-tagged Ub. Flag-tagged (red) Ub (dark pink) is first charged to Uba1/E1 (light pink) using ATP (blue) and then transferred to UbcH7/E2 (light brown).
(2) Ub charged E2 incubation with immobilised WWP2. UbcH7/E2 transfers flag-tagged Ub to WWP2 before WWP2 auto-ubiquitination occurs in the absence or presence of compounds (blue). (3) Incubation of recombinant HRP anti-flag antibody with auto-ubiquitinated WWP2. Anti-flag antibody (purple) containing recombinant HRP (orange) associates with the flag-tagged Ub. (4) HRP-mediated oxidation of TMB.
Single-electron oxidation of TMB by HRP in the presence of HO creates first a blue colour change, before acidification results in a yellow colour change (450 nm) stopping

[2] = target: T2, WWP1-L34H (Homo sapiens, UniProt Q9H0M0); assay: WWP1 ELISA autoubiquitination assay; assay type: biochemical; conditions: for relative activity, single-shot autoubiquitination: 1 mM compound, hit threshold less than 50% relative activity; for relative autoubiquitination activity, single-shot: 500 µM compound, normalised to 0% and 100% controls
T2 construct: WWP1- 2,3-linker-WW3-WW4-HECT (WWP1-L34H); made in house; host or cells: E. coli BL21-CodonPlus RP (plasmid pET32a-WWP1-L34H, gifted by Dr Wenyu Wen)
Protocol: as §1, §2, §3

[3] = target: T3, UbcH7 (Homo sapiens, UniProt P68036); assay: UbcH7 counter autoubiquitination assay; assay type: biochemical; conditions: 1 mM compound, 1% DMSO, in Table S6 73735 and 217913 synthesised
T3 construct: made in house; host or cells: E. coli BL21-CodonPlus RP (plasmid pET3a-UbcH7 His, gifted by Professor Martin Scheffner)
Protocol: as §1
These preliminary hit compounds were further screened in dose-dependent ELISA autoubiquitination assays from 500 µM − 5 nM, with three NSC compounds for WWP1 (13151, 73735 & 85433) and only two NSC compounds for WWP2 (57103 & 217913) showing a dose-response (SI Table S4). […] To ensure the intended target was being inhibited and not the […] Uba1 (E1) and UbcH7 (E2) enzymes used in the catalytic cascade of the assay, a counter autoubiquitination screen was utilised. Upon counter-activity analysis, only with NSC-217913 did UbcH7 retain more than 90% activity and so this was selected as the sole validated hit compound from our inhibition screen (SI Table S6).

[4] = sample used directly from the NCI library, dose range 500 µM - 5 nM
[5] = synthesised compound, WWP1-L34H, 1% DMSO, 95% CI range in brackets
[6] = synthesised compound, WWP2-FL, 1% DMSO, 95% CI range in brackets

T3 sequence (P68036 whole entry): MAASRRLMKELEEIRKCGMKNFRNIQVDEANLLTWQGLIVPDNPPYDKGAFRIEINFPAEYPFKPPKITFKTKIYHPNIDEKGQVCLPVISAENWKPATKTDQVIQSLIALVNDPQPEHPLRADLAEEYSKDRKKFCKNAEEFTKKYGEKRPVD
T1 sequence (O00308 whole entry): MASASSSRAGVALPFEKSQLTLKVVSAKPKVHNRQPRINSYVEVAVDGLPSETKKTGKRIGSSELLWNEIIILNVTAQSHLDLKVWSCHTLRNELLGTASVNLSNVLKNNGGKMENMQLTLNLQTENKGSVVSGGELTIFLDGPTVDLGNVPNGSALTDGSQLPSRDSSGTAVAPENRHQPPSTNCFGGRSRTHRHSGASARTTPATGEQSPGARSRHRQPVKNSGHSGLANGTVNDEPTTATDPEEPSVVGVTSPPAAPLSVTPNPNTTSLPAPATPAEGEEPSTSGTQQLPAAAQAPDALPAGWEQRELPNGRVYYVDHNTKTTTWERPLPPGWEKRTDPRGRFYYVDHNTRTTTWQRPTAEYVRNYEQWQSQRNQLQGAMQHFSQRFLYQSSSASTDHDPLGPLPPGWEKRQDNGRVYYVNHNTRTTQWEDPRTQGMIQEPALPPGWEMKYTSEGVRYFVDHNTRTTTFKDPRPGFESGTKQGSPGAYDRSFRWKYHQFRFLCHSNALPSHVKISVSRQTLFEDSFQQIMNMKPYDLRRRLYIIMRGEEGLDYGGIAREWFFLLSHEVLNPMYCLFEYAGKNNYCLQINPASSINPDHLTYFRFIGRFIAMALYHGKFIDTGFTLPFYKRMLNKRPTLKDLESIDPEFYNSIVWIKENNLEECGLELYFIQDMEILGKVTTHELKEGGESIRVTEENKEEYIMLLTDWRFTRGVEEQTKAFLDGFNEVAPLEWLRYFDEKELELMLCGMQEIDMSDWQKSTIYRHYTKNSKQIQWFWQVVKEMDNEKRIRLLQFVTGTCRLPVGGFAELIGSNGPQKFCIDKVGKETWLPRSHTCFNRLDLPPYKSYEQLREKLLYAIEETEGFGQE

## CCOC(=O)Cc1cn2cc(Cl)ncc2n1 [Compound 2, Ethyl 6-chloroimidazo[1,2-a]pyrazine-2-acetate]
[1]; 1% DMSO
  relative activity, single-shot autoubiquitination: some decrease in activity

## CCOC(=O)Cc1cn2cc(Cl)nc(Cl)c2n1 [Compound 4, Ethyl 6,8-Dichloroimidazo[1,2-a]pyrazine-2-acetate]
[1]; 1% DMSO
  relative activity, single-shot autoubiquitination: some decrease in activity

## CCOC(=O)CSc1nc2nc(Cl)cnc2[nH]1 [Compound 5, Ethyl 2-({5-chloro-1H-imidazo[4,5-b]pyrazine-2-yl}sulfanyl)acetate]
[1]; 1% DMSO
  relative activity, single-shot autoubiquitination: some decrease in activity

## CCOC(=O)CSc1nc2nc(Cl)c(Cl)nc2[nH]1 [Compound 6, Ethyl 2-({5,6-dichloro-1H-imidazo[4,5-b]pyrazine-2-yl}sulfanyl)-acetate]
[2]; [4]
  IC50: 33.3 µM
[2]; [5]
  IC50: 158 µM
[1]; 1% DMSO
  relative autoubiquitination activity, single-shot: less than 50%
[1]; [4]
  IC50: < 100 µM and 69.8 µM
[1]; synthesised compound, WWP2-FL, 1% DMSO, 95% CI range in brackets, listed as 6/217913
  WWP2 IC50: Unstable^a
[1]; synthesised compound, WWP2-FL, 1% DMSO, 95% CI range in brackets, listed as NSC-217913
  WWP2 IC50: too weak to determine accurately
[3]
  UbcH7 Activity: 92.2 ± 1.1%
[3]; listed as NSC-217913
  UbcH7 Activity: more than 90%

## N#CCSc1nc2nc(Cl)c(Cl)nc2[nH]1 [Compound 7, 2-({5,6-Dichloro-1H-imidazo[4,5-b]pyrazine-2-yl}sulfanyl)acetonitrile]
[1]; [6]
  IC50: 856 µM
  WWP2 IC50: only limited inhibition
[3]
  UbcH7 Activity: 94.2 ± 0.8%

## CCCC(C)Sc1nc2nc(Cl)c(Cl)nc2[nH]1 (stereo not drawn) [Compound 8, 2-({5,6-dichloro-1H-imidazo[4,5-b]pyrazine-2-yl}sulfanyl)pentane]
[2]; 1% DMSO
  relative activity, single-shot autoubiquitination: rather small decrease in relative activity
[1]; 1% DMSO
  relative activity, single-shot autoubiquitination: rather small decrease in relative activity

## O=C(CSc1nc2nc(Cl)c(Cl)nc2[nH]1)N1CCOCC1 [Compound 9, 2-({5,6-dichloro-1H-imidazo[4,5-b]pyrazine-2-yl}sulfanyl)acetylmorpholine]
[2]; 1% DMSO
  relative activity, single-shot autoubiquitination: failed to reach the activity threshold
[1]; [6]
  IC50: 622 µM

## CCCC(=O)CSc1nc2nc(Cl)c(Cl)nc2[nH]1 [Compound 10]
[2]; 1% DMSO
  relative activity, single-shot autoubiquitination: rather small decrease in relative activity
[1]; 1% DMSO
  relative activity, single-shot autoubiquitination: rather small decrease in relative activity

## CCOC(=O)CNC(=O)CSc1nc2nc(Cl)c(Cl)nc2[nH]1 [Compound 12, Ethyl 2-({5,6-dichloro-1H-imidazo[4,5-b]pyrazine-2-yl}sulfanyl)acetamidoacetate]
[2]; 1% DMSO
  relative activity, single-shot autoubiquitination: better single-shot data
[1]; 1% DMSO
  relative activity, single-shot autoubiquitination: better single-shot data

## O=C(O)CCSc1nc2nc(Cl)c(Cl)nc2[nH]1 [Compound 13, 3-({5,6-Dichloro-1H-imidazo[4,5-b]pyrazine-2-yl}sulfanyl)propionic acid]
[2]; 1% DMSO
  relative activity, single-shot autoubiquitination: failed to reach the activity threshold
[1]; [6]
  IC50: 603 µM

## COC(=O)[C@H](COC(C)(C)C)NC(=O)CSc1nc2nc(Cl)c(Cl)nc2[nH]1 [Compound 14, Methyl 3-(tert-butoxy)-2(S)-[2-({5,6-dichloro-1H-imidazo[4,5-b]pyrazine-2-yl}sulfanyl)acetamido]propionate]
[2]; 1% DMSO
  relative activity, single-shot autoubiquitination: rather small decrease in relative activity
[1]; 1% DMSO
  relative activity, single-shot autoubiquitination: rather small decrease in relative activity

## O=C(O)CSc1nc2nc(Cl)c(Cl)nc2[nH]1 [Compound 15, ({5,6-dichloro-1H-imidazo[4,5-b]pyrazine-2-yl}sulfanyl)acetic acid]
[2]; [5]
  IC50: 375 µM
[1]; [6]
  IC50: 666 µM
  WWP2 IC50: only weakly
[3]
  UbcH7 Activity: 93.0 ± 1.0%
other
  melting point: 219.1 to 220.7 °C

## O=C(O)CNC(=O)CSc1nc2nc(Cl)c(Cl)nc2[nH]1 [Compound 16, 2-({5,6-dichloro-1H-imidazo[4,5-b]pyrazine-2-yl}sulfanyl)acetamidoacetic acid]
[2]; 1% DMSO
  relative activity, single-shot autoubiquitination: better single-shot data
[1]; 1% DMSO
  relative activity, single-shot autoubiquitination: better single-shot data

## O=C(CSc1nc2nc(Cl)c(Cl)nc2[nH]1)N[C@@H](CO)C(=O)O [Compound 17, 3-hydroxy-2(S)-[({5,6-dichloro-1H-imidazo[4,5-b]pyrazine-2-yl}sulfanyl)acetamido]propanoic acid]
[3]
  UbcH7 Activity: 88.8 ± 0.7%

## CCOC(=O)CSc1nc2nccnc2[nH]1 [Compound 20, Ethyl 2-({1H-imidazo[4,5-b]pyrazine}sulfanyl-2-yl)acetate]
[2]; 1% DMSO
  relative activity, single-shot autoubiquitination: reducing relative activity

## CCOC(=O)CSc1nc2cncnc2[nH]1 [Compound 21, Ethyl 2-({9H-imidazo[4,5-d]pyrimidine}sulfan-8-yl)acetate]
[2]; 1% DMSO
  relative activity, single-shot autoubiquitination: reducing relative activity

## Nc1nc2nc(Br)cnc2s1 [Compound 26, 5-bromothiazolo[4,5-b]pyrazine-2-amine]
[1]; 1% DMSO
  relative activity, single-shot autoubiquitination: some decrease in activity

## O=C(/C=C/c1ccccc1Cl)c1ccc(O)cc1 [NSC-13151]
[2]; 1% DMSO
  relative autoubiquitination activity, single-shot: less than 50%
[2]; [4]
  IC50: 397 µM

## Cc1ccc(C=C2C(Cl)=C(Cl)C(Cl)=C2Cl)cc1 [NSC-26112]
[1]; 1% DMSO
  relative autoubiquitination activity, single-shot: less than 50%

## O=[N+]([O-])c1cc([N+](=O)[O-])c2cccnc2c1O [NSC-57103]
[1]; 1% DMSO
  relative autoubiquitination activity, single-shot: less than 50%
[1]; [4]
  IC50: 513 µM

## COc1cc(-c2ccc(Nc3ccccc3C(=O)O)c(OC)c2)ccc1Nc1ccccc1C(=O)O [NSC-73735]
[2]; 1% DMSO
  relative autoubiquitination activity, single-shot: less than 50%
[1]; [4]
  IC50: 49.1 µM
[3]
  UbcH7 Activity: 62.5 ± 2.4%

## CCc1oc2ccccc2c1C(=O)c1cc(Br)c(O)c(Br)c1 [NSC-85433]
[2]; 1% DMSO
  relative autoubiquitination activity, single-shot: less than 50%
[2]; [4]
  IC50: < 100 µM and 92.4 µM
[1]; [4]
  IC50: 256 µM
[3]
  UbcH7 Activity: 7.5 ± 0.6%

## NC(=Nc1nc(-c2ccccn2)cc2ccccc12)c1ccccn1 [NSC-637578]
[2]; 1% DMSO
  relative autoubiquitination activity, single-shot: less than 50%

## Ethyl 2-[({imidazo[4,5-c]pyridine}sulfan-2-yl-5N-(ethyl-2-acetate))]acetate [Compound 23]
[2]; 1% DMSO
  relative activity, single-shot autoubiquitination: reducing relative activity
